Assay results published in PMC10971807 (Marine Drugs, 2024).
Several values for one entry are separate records, joined by “and”; a condition that tells them apart may be missing. Equal entries are not always repeated. Where a SMILES comes first, the peptide text is derived from it. Bridges are numbered along the chain shown (N, C = ends). [ ]: non-standard residue; d: D form. Dab = NCC[C@H](N)C(=O)O; Dap = NC[C@H](N)C(=O)O

Experiments:
hα4β4 nAChR = hα4β4 nAChR (Homo sapiens, UniProt P30926+P43681); format: cell-based
Sequence of hα4β4 nAChR (P43681 29-627 limits assumed): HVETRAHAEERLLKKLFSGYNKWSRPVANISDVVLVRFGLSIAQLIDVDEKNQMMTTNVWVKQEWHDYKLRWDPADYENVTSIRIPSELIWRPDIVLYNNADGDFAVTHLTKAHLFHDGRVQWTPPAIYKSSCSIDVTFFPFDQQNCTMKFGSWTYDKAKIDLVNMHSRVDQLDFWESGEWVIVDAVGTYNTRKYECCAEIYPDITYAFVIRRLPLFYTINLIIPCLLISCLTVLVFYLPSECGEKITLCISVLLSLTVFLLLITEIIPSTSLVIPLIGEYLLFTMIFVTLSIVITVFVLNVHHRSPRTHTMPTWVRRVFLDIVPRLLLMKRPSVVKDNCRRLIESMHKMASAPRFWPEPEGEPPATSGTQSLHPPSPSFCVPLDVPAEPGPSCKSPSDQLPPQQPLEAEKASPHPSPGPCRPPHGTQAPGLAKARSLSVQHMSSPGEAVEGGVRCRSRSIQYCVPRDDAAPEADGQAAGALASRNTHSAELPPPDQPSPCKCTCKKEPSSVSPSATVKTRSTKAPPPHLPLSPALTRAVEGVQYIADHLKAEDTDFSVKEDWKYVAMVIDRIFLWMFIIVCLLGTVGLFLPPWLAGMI
Sequence of hα4β4 nAChR (P30926 22-498 limits assumed): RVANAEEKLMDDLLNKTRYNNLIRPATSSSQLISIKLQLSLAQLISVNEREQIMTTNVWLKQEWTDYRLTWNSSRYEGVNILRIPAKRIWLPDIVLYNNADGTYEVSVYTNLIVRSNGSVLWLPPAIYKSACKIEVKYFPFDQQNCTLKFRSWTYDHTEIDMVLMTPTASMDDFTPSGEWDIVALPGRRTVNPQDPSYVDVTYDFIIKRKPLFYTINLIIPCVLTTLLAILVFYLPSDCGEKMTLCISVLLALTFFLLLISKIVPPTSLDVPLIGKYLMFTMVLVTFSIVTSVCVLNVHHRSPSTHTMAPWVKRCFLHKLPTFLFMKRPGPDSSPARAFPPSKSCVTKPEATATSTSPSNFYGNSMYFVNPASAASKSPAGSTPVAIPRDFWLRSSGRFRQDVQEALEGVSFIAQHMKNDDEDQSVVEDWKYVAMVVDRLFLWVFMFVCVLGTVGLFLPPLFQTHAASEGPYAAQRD

hα3β4 nAChR = hα3β4 nAChR (Homo sapiens, UniProt P30926+P32297); format: cell-based
Sequence of hα3β4 nAChR (P32297 32-505 limits assumed): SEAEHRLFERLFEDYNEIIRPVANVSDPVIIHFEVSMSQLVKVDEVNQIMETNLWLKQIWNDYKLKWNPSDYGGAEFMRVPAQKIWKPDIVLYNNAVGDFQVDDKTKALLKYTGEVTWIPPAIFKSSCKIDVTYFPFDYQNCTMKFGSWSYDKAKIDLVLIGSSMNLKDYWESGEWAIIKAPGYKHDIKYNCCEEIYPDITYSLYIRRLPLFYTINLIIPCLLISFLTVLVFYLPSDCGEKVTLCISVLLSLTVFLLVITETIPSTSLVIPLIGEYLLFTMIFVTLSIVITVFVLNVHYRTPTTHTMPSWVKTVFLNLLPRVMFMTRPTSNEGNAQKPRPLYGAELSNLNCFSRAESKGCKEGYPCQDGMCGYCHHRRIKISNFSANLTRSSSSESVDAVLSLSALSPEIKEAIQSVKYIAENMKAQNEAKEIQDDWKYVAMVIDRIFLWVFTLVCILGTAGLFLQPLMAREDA
Sequence of hα3β4 nAChR (P30926 22-498 limits assumed): as the sequence (P30926 22-498 limits assumed) above

hα4β2 nAChR = hα4β2 nAChR (Homo sapiens, UniProt P17787+P43681); format: cell-based
Sequence of hα4β2 nAChR (P43681 29-627 limits assumed): as the sequence (P43681 29-627 limits assumed) above
Sequence of hα4β2 nAChR (P17787 26-502 limits assumed): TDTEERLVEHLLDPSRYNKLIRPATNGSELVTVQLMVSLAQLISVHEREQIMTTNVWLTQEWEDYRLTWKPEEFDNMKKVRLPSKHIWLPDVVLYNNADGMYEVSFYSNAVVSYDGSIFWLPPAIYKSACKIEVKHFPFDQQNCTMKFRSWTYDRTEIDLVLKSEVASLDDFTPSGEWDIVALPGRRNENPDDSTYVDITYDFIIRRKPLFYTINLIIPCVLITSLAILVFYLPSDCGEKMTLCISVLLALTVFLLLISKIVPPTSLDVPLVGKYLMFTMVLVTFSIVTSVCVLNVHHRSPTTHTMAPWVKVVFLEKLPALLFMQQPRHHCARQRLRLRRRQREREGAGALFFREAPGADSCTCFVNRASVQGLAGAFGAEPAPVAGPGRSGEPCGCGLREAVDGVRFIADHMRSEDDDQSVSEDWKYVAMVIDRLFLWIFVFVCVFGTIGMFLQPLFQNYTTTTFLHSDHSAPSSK

hα9α10 nAChR = hα9α10 nAChR (Homo sapiens, UniProt Q9GZZ6+Q9UGM1); test: cell-based; settings: for IC50: IC50, inhibition of ACh-evoked currents at hα9α10 nAChRs
Sequence of hα9α10 nAChR (Q9UGM1 26-479 limits assumed): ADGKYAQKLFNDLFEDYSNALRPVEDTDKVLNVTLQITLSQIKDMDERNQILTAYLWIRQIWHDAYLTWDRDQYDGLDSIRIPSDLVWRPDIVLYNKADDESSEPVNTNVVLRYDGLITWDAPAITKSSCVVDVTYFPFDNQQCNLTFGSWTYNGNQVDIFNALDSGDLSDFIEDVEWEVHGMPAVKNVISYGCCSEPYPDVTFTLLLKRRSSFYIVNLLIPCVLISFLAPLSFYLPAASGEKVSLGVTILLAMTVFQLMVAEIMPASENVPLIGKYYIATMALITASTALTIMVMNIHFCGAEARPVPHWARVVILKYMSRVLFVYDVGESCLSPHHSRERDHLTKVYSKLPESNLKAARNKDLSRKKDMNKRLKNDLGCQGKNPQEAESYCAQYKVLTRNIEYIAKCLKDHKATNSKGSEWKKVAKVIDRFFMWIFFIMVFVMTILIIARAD
Sequence of hα9α10 nAChR (Q9GZZ6 25-450 limits assumed): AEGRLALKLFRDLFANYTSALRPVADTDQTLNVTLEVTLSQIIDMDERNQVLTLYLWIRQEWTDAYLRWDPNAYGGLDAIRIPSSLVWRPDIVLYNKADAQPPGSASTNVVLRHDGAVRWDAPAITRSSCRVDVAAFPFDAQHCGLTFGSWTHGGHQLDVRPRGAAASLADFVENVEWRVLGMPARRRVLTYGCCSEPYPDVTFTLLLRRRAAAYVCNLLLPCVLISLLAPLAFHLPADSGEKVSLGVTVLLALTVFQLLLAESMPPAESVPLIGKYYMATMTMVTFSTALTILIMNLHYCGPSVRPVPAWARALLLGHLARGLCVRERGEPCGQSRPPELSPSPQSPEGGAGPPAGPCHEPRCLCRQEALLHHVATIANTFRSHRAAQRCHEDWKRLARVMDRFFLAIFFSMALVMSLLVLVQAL

hα3β2 nAChR = hα3β2 nAChR (Homo sapiens, UniProt P17787+P32297); test: cell-based
Sequence of hα3β2 nAChR (P32297 32-505 limits assumed): as the sequence (P32297 32-505 limits assumed) above
Sequence of hα3β2 nAChR (P17787 26-502 limits assumed): as the sequence (P17787 26-502 limits assumed) above

hα7 nAChR = hα7 nAChR (Homo sapiens, UniProt P36544); test: cell-based
Sequence of hα7 nAChR (P36544 23-502 limits assumed): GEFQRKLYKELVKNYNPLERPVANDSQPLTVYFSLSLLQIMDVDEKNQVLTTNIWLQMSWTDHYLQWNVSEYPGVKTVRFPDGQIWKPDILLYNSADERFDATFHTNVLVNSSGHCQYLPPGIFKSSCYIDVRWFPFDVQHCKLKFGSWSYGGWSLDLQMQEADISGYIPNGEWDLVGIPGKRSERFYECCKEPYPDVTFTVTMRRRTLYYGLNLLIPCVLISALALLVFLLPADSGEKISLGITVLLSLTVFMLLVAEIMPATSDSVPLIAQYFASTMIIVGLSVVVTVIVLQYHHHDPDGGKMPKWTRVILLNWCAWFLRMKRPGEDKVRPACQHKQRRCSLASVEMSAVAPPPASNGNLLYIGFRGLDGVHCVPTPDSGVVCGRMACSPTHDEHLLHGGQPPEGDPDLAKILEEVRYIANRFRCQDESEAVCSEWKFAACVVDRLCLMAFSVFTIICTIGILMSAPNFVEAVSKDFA

Row | SMILES | Enhancement of activity (IC50) at hα9α10 relative to PeIA (hα9α10 nAChR) | IC50 (hα9α10 nAChR) | IC50 (hα3β2 nAChR) [nM] | other results
1 | CC(C)C[C@@H]1NC(=O)[C@H](CCC(=O)O)NC(=O)[C@@H]2CCCN2C(=O)[C@H](Cc2c[nH]cn2)NC(=O)[C@H](CC(N)=O)NC(=O)[C@H](C(C)C)NC(=O)[C@H](CO)NC(=O)[C@@H]2CSSC[C@H](NC(=O)CN)C(=O)N[C@@H](CSSC[C@@H](C(N)=O)NC1=O)C(=O)N[C@@H](CO)C(=O)N[C@@H](Cc1c[nH]cn1)C(=O)N1CCC[C@H]1C(=O)N[C@@H](C)C(=O)N2 [PeIA] (H-GCCSHPACSVNHPELC-NH2; disulfide 2-8, 3-16) |  |  |  | Inhibition of ACh-evoked currents at hα4β4 (hα4β4 nAChR): < 1%; Inhibition of ACh-evoked currents at hα3β4 (hα3β4 nAChR): < 1%; Inhibition of ACh-evoked currents at hα4β2 (hα4β2 nAChR): < 1%
2 | CC(C)C[C@@H]1NC(=O)[C@H](CCC(=O)O)NC(=O)[C@@H]2CCCN2C(=O)[C@H](Cc2c[nH]cn2)NC(=O)[C@H](CC(N)=O)NC(=O)[C@H](C(C)C)NC(=O)[C@H](CO)NC(=O)[C@@H]2CSSC[C@H](NC(=O)CN)C(=O)N[C@@H](CSSC[C@@H](C(N)=O)NC1=O)C(=O)N[C@@H](CCN)C(=O)N[C@@H](Cc1c[nH]cn1)C(=O)N1CCC[C@H]1C(=O)N[C@@H](C)C(=O)N2 [PeIA[S4Dab]] (H-GCC[Dab]HPACSVNHPELC-NH2; disulfide 2-8, 3-16) | ~ 4 fold | 5.32 nM and 5.3 nM |  | 
3 | CC(C)C[C@@H]1NC(=O)[C@H](CCC(=O)O)NC(=O)[C@@H]2CCCN2C(=O)[C@H](Cc2cnc[nH]2)NC(=O)[C@H](CC(N)=O)NC(=O)[C@H](C(C)C)NC(=O)[C@H](CO)NC(=O)[C@@H]2CSSC[C@H](NC(=O)CN)C(=O)N[C@@H](CSSC[C@@H](C(N)=O)NC1=O)C(=O)N[C@@H](CO)C(=O)N[C@@H](Cc1cnc[nH]1)C(=O)N1CCC[C@H]1C(=O)N[C@@H](C)C(=O)N2 [PeIA] (H-GCCSHPACSVNHPELC-NH2; disulfide 2-8, 3-16) |  |  | 59.8 | 
4 | CC(C)C[C@@H]1NC(=O)[C@H](CCC(=O)O)NC(=O)[C@@H]2CCCN2C(=O)[C@H](Cc2c[nH]cn2)NC(=O)[C@H](CC(N)=O)NC(=O)[C@H](C(C)C)NC(=O)[C@H](CN)NC(=O)[C@@H]2CSSC[C@H](NC(=O)CN)C(=O)N[C@@H](CSSC[C@@H](C(N)=O)NC1=O)C(=O)N[C@@H](CN)C(=O)N[C@@H](Cc1c[nH]cn1)C(=O)N1CCC[C@H]1C(=O)N[C@@H](C)C(=O)N2 [PeIA[S4Dap, S9Dap]] (H-GCC[Dap]HPAC[Dap]VNHPELC-NH2; disulfide 2-8, 3-16) | ~24 fold | 0.93 nM | 32.8 | IC50 (hα7 nAChR): 162 nM; Potency at hα9α10 relative to dimeric PeIA (hα9α10 nAChR): approximately two-fold
5 | CC(C)C[C@@H]1NC(=O)[C@H](CCC(=O)O)NC(=O)[C@@H]2CCCN2C(=O)[C@H](Cc2c[nH]cn2)NC(=O)[C@H](CC(N)=O)NC(=O)[C@H](C(C)C)NC(=O)[C@H](CO)NC(=O)[C@@H]2CSSC[C@H](NC(=O)CN)C(=O)N[C@@H](CSSC[C@@H](C(N)=O)NC1=O)C(=O)N[C@@H](CN)C(=O)N[C@@H](Cc1c[nH]cn1)C(=O)N1CCC[C@H]1C(=O)N[C@@H](C)C(=O)N2 [PeIA[S4Dap]] (H-GCC[Dap]HPACSVNHPELC-NH2; disulfide 2-8, 3-16) | ~13 fold | 1.74 nM |  | 
6 | CC(C)C[C@@H]1NC(=O)[C@H](CCC(=O)O)NC(=O)[C@@H]2CCCN2C(=O)[C@H](Cc2c[nH]cn2)NC(=O)[C@H](CC(N)=O)NC(=O)[C@H](C(C)C)NC(=O)[C@H](CN)NC(=O)[C@@H]2CSSC[C@H](NC(=O)CN)C(=O)N[C@@H](CSSC[C@@H](C(N)=O)NC1=O)C(=O)N[C@@H](CO)C(=O)N[C@@H](Cc1c[nH]cn1)C(=O)N1CCC[C@H]1C(=O)N[C@@H](C)C(=O)N2 [PeIA[S9Dap]] (H-GCCSHPAC[Dap]VNHPELC-NH2; disulfide 2-8, 3-16) | ~5 fold | 4.67 nM |  | 
